Assay results from ChEMBL document CHEMBL1145665, “Tunicamycins, streptovirudins, and corynetoxins, a special subclass of nucleoside antibiotics” (J Nat Prod, 1983).

organism: Sus scrofa; test: Inhibition of pig aortic GlcNAc-1P-transferase-mediated […] formation at 50 to 100 ug/ml

| SMILES | inhibition [%] |
| --- | --- |
| CC(=O)N[C@H]1[C@@H](O[C@@H]2O[C@H](C[C@H](O)[C@H]3O[C@@H](N4CCC(=O)NC4=O)[C@H](O)[C@@H]3O)[C@H](O)[C@H](O)[C@H]2NC(=O)/C=C/CCCCCCCCC(C)C)O[C@H](CO)[C@@H](O)[C@@H]1O | 50 |
| CCC(C)CCCCCC/C=C/C(=O)N[C@H]1[C@H](O[C@H]2O[C@H](CO)[C@@H](O)[C@H](O)[C@H]2NC(C)=O)O[C@H](C[C@H](O)[C@H]2O[C@@H](N3CCC(=O)NC3=O)[C@H](O)[C@@H]2O)[C@H](O)[C@@H]1O (stereo not given in full) | 50 |
| CCC(C)CCCCCCCC/C=C/C(=O)N[C@H]1[C@H](O[C@H]2O[C@H](CO)[C@@H](O)[C@H](O)[C@H]2NC(C)=O)O[C@H](C[C@H](O)[C@H]2O[C@@H](N3CCC(=O)NC3=O)[C@H](O)[C@@H]2O)[C@H](O)[C@@H]1O (stereo not given in full) | 50 |
| CC(=O)N[C@H]1[C@@H](O[C@@H]2O[C@H](C[C@H](O)[C@H]3O[C@@H](N4CCC(=O)NC4=O)[C@H](O)[C@@H]3O)[C@H](O)[C@H](O)[C@H]2NC(=O)/C=C/CCCCCCCC(C)C)O[C@H](CO)[C@@H](O)[C@@H]1O | 50 |
| CC(=O)N[C@H]1[C@@H](O[C@@H]2O[C@H](C[C@H](O)[C@H]3O[C@@H](N4CCC(=O)NC4=O)[C@H](O)[C@@H]3O)[C@H](O)[C@H](O)[C@H]2NC(=O)/C=C/CCCCCCC(C)C)O[C@H](CO)[C@@H](O)[C@@H]1O | 50 |

organism: Sus scrofa; test: Inhibition of pig aortic GlcNAc-1P-transferase-mediated […] formation at 0.5 to 1.5 ug/ml

| SMILES | inhibition [%] |
| --- | --- |
| CC(=O)N[C@H]1[C@@H](O[C@@H]2O[C@H](C[C@H](O)[C@H]3O[C@@H](n4ccc(=O)[nH]c4=O)[C@H](O)[C@@H]3O)[C@H](O)[C@H](O)[C@H]2NC(=O)/C=C/CCCCCCCC(C)C)O[C@H](CO)[C@@H](O)[C@@H]1O | 50 |
| CC(=O)N[C@H]1[C@@H](O[C@@H]2O[C@H](C[C@H](O)[C@H]3O[C@@H](n4ccc(=O)[nH]c4=O)[C@H](O)[C@@H]3O)[C@H](O)[C@H](O)[C@H]2NC(=O)/C=C/CCCCCCC(C)C)O[C@H](CO)[C@@H](O)[C@@H]1O | 50 |
| CC(=O)N[C@H]1[C@@H](O[C@@H]2O[C@H](C[C@H](O)[C@H]3O[C@@H](n4ccc(=O)[nH]c4=O)[C@H](O)[C@@H]3O)[C@H](O)[C@H](O)[C@H]2NC(=O)/C=C/CCCCCCCCC(C)C)O[C@H](CO)[C@@H](O)[C@@H]1O | 50 |
| CCC(C)CCCCCCCC/C=C/C(=O)N[C@H]1[C@H](O[C@H]2O[C@H](CO)[C@@H](O)[C@H](O)[C@H]2NC(C)=O)O[C@H](C[C@H](O)[C@H]2O[C@@H](n3ccc(=O)[nH]c3=O)[C@H](O)[C@@H]2O)[C@H](O)[C@@H]1O (stereo not given in full) | 50 |
| CCC(C)CCCCCC/C=C/C(=O)N[C@H]1[C@H](O[C@H]2O[C@H](CO)[C@@H](O)[C@H](O)[C@H]2NC(C)=O)O[C@H](C[C@H](O)[C@H]2O[C@@H](n3ccc(=O)[nH]c3=O)[C@H](O)[C@@H]2O)[C@H](O)[C@@H]1O (stereo not given in full) | 50 |
